Laboratory results as given in PubChem BioAssay AID226 (DTP/NCI, 2004).
Several values for one entry are separate records, joined by “and”; a condition that tells them apart may be missing. Equal entries are not always repeated. Inconclusive results and toxic doses are left out. How the source made its calls: active means survival T/C of 150% or more; inactive means T/C below 125% in these data.

Tested on: B6C3F1 mice, intracerebral ependymoblastoma, median survival T/C
Assay: NCI In Vivo Anticancer Drug Screen. Data for tumor model Ependymoblastoma (intracerebral) in B6C3F1 mice
Details: endpoint: median survival time, higher = longer survival
Experimental: The antitumor activity of compounds was measured in mice bearing transplantable tumors. Survival or tumor size were measured and the results are expressed as the measurement made in the treated group (T) divided by the measurement made in the vehicle treated control group (C). The tumor model used in this assay is Ependymoblastoma (intracerebral) in B6C3F1 mice

Measured: T/C

COC(=O)[C@@]12OC[C@]34[C@H]([C@@H](O)[C@@H]1O)[C@@]1(C)CC(=O)C(O)=C(C)[C@@H]1C[C@H]3OC(=O)[C@H](OC(=O)/C=C(\C)C(C)C)[C@@H]24
inactive: dose: 0.03 mg/kg/injection, schedule: Q01DX005 (ip), vehicle: saline + alcohol 100 % of control and 101 % of control | dose: 0.06 mg/kg/injection, schedule: Q01DX005 (ip), vehicle: saline + alcohol 92 % of control and 97 % of control | dose: 0.12 mg/kg/injection, schedule: Q01DX005 (ip), vehicle: saline + alcohol 98 % of control and 101 % of control | dose: 0.12 mg/kg/injection, schedule: Q01DX005 (oral), vehicle: saline 100 % of control | dose: 0.12 mg/kg/injection, schedule: Q12HX006 (ip), vehicle: saline 109 % of control | dose: 0.25 mg/kg/injection, schedule: Q01DX005 (ip), vehicle: saline + alcohol 95 % of control and 96 % of control | dose: 0.25 mg/kg/injection, schedule: Q12HX002 (ip), vehicle: saline 107 % of control | dose: 0.25 mg/kg/injection, schedule: Q12HX006 (ip), vehicle: saline 116 % of control | dose: 0.5 mg/kg/injection, schedule: Q01DX001 (ip), vehicle: saline 111 % of control and 115 % of control and 116 % of control | dose: 0.5 mg/kg/injection, schedule: Q01DX005 (ip), vehicle: saline + alcohol 92 % of control and 95 % of control | dose: 0.5 mg/kg/injection, schedule: Q01DX005 (oral), vehicle: saline 101 % of control | dose: 0.5 mg/kg/injection, schedule: Q12HX002 (ip), vehicle: saline 107 % of control | dose: 0.5 mg/kg/injection, schedule: Q12HX006 (ip), vehicle: saline 116 % of control | dose: 1.0 mg/kg/injection, schedule: Q01DX001 (ip), vehicle: saline 101 % of control and 110 % of control and 111 % of control | dose: 1.0 mg/kg/injection, schedule: Q01DX005 (ip), vehicle: saline + alcohol 95 % of control and 100 % of control | dose: 1.0 mg/kg/injection, schedule: Q01DX005 (oral), vehicle: saline 100 % of control | dose: 1.0 mg/kg/injection, schedule: Q12HX002 (ip), vehicle: saline 102 % of control | dose: 1.0 mg/kg/injection, schedule: Q12HX006 (ip), vehicle: saline 119 % of control | dose: 2.0 mg/kg/injection, schedule: Q01DX001 (ip), vehicle: saline 119 % of control and 123 % of control | dose: 2.0 mg/kg/injection, schedule: Q01DX001 (oral), vehicle: saline 101 % of control and 109 % of control and 115 % of control | dose: 2.0 mg/kg/injection, schedule: Q01DX005 (ip), vehicle: saline + alcohol 98 % of control | dose: 2.0 mg/kg/injection, schedule: Q01DX005 (oral), vehicle: saline 105 % of control | dose: 2.0 mg/kg/injection, schedule: Q12HX002 (ip), vehicle: saline 110 % of control | dose: 4.0 mg/kg/injection, schedule: Q01DX001 (ip), vehicle: saline 115 % of control | dose: 4.0 mg/kg/injection, schedule: Q01DX001 (oral), vehicle: saline 95 % of control and 101 % of control and 123 % of control | dose: 4.0 mg/kg/injection, schedule: Q12HX002 (ip), vehicle: saline 101 % of control | dose: 8.0 mg/kg/injection, schedule: Q01DX001 (oral), vehicle: saline 95 % of control and 96 % of control and 108 % of control | dose: 16.0 mg/kg/injection, schedule: Q01DX001 (oral), vehicle: saline 105 % of control

CC(=O)OCC1OC(n2cnc3c(=S)nc(N)[nH]c32)C(OC(C)=O)C1OC(C)=O (centres undefined)
inactive: dose: 3.12 mg/kg/injection, schedule: Q01DX005 (ip), vehicle: saline 102 % of control and 109 % of control | dose: 6.25 mg/kg/injection, schedule: Q01DX005 (ip), vehicle: saline 104 % of control and 105 % of control and 116 % of control | dose: 12.5 mg/kg/injection, schedule: Q01DX005 (ip), vehicle: saline 98 % of control and 110 % of control | dose: 25.0 mg/kg/injection, schedule: Q01DX005 (ip), vehicle: saline 104 % of control

CN(Cc1cnc2nc(N)nc(N)c2n1)c1ccc(C(=O)N[C@@H](CCC(=O)O)C(=O)O)cc1
inactive: dose: 4.0 mg/kg/injection, schedule: Q01DX009 (ip), vehicle: saline with Tween-80 118 % of control | dose: 4.0 mg/kg/injection, schedule: Q04DX003 (ip), vehicle: saline with Tween-80 118 % of control | dose: 8.0 mg/kg/injection, schedule: Q01DX009 (ip), vehicle: saline with Tween-80 106 % of control | dose: 8.0 mg/kg/injection, schedule: Q04DX003 (ip), vehicle: saline with Tween-80 110 % of control | dose: 16.0 mg/kg/injection, schedule: Q01DX009 (ip), vehicle: saline with Tween-80 111 % of control | dose: 16.0 mg/kg/injection, schedule: Q04DX003 (ip), vehicle: saline with Tween-80 98 % of control | dose: 32.0 mg/kg/injection, schedule: Q01DX009 (ip), vehicle: saline with Tween-80 109 % of control

Nc1nc(=S)c2ncn(C3OC(COC(=O)c4ccc(Cl)cc4)C(OC(=O)c4ccc(Cl)cc4)C3OC(=O)c3ccc(Cl)cc3)c2[nH]1 (centres undefined)
inactive: dose: 18.75 mg/kg/injection, schedule: Q01DX005 (ip), vehicle: Klucel (hydroxypropylcellulose) (HPC) 101 % of control | dose: 37.5 mg/kg/injection, schedule: Q01DX005 (ip), vehicle: Klucel (hydroxypropylcellulose) (HPC) 102 % of control | dose: 75.0 mg/kg/injection, schedule: Q01DX005 (ip), vehicle: Klucel (hydroxypropylcellulose) (HPC) 98 % of control and 115 % of control

CC(=O)Nc1ccn(C2OC(COC(C)=O)C(OC(C)=O)C2OC(C)=O)c(=O)n1 (centres undefined)
inactive: dose: 150.0 mg/kg/injection, schedule: Q01DX005 (ip), vehicle: saline with Tween-80 105 % of control | dose: 300.0 mg/kg/injection, schedule: Q01DX005 (ip), vehicle: saline with Tween-80 112 % of control | dose: 600.0 mg/kg/injection, schedule: Q01DX005 (ip), vehicle: saline with Tween-80 107 % of control | dose: 1200.0 mg/kg/injection, schedule: Q01DX005 (ip), vehicle: saline with Tween-80 120 % of control

OCC1OC(n2cnc3c2NC=NC[C@H]3O)CC1O (some centres undefined)
inactive: dose: 0.12 mg/kg/injection, schedule: Q#ADX018 (ip), vehicle: saline 102 % of control | dose: 0.25 mg/kg/injection, schedule: Q01DX005 (ip), vehicle: saline 108 % of control and 113 % of control | dose: 0.25 mg/kg/injection, schedule: Q#ADX018 (ip), vehicle: saline 103 % of control | dose: 0.5 mg/kg/injection, schedule: Q01DX005 (ip), vehicle: saline 100 % of control and 103 % of control | dose: 0.5 mg/kg/injection, schedule: Q01DX009 (ip), vehicle: saline 103 % of control and 116 % of control | dose: 0.5 mg/kg/injection, schedule: Q#A X010 (ip), vehicle: saline 122 % of control | dose: 1.0 mg/kg/injection, schedule: Q01DX009 (ip), vehicle: saline 88 % of control | dose: 2.0 mg/kg/injection, schedule: Q01DX009 (ip), vehicle: saline 91 % of control
